Laboratory results taken from patent US5102897A, “3,5-ditertiarybutyl-4-hydroxyphenyl, 1,3,4-thiadiazoles and oxadiazoles linked by carbon, oxygen, and sulfur residues” (Warner-Lambert Company, priority 1991, dated 1992).

Tests used:
[1] = target: T1, 5-Lipoxygenase (Rattus norvegicus, UniProt P12527); test: ARBL whole cell 5-lipoxygenase assay (RBL-1 cells, LTB4 formation, RIA); type: cell-based; conditions: RBL-1 whole cells; for inhibition at 10 µM / inhibition at 16 µM: A23187, read-out: ARBL: Percent inhibition of LTB4 @ μM noted; for IC50: calcium ionophore A23187 (5 μM), read-out: ARBL: IC50 for LTB4 inhibition
T1 construct: host or cells: RBL-1 (rat basophilic leukemia)
T1 sequence (P12527 1-673): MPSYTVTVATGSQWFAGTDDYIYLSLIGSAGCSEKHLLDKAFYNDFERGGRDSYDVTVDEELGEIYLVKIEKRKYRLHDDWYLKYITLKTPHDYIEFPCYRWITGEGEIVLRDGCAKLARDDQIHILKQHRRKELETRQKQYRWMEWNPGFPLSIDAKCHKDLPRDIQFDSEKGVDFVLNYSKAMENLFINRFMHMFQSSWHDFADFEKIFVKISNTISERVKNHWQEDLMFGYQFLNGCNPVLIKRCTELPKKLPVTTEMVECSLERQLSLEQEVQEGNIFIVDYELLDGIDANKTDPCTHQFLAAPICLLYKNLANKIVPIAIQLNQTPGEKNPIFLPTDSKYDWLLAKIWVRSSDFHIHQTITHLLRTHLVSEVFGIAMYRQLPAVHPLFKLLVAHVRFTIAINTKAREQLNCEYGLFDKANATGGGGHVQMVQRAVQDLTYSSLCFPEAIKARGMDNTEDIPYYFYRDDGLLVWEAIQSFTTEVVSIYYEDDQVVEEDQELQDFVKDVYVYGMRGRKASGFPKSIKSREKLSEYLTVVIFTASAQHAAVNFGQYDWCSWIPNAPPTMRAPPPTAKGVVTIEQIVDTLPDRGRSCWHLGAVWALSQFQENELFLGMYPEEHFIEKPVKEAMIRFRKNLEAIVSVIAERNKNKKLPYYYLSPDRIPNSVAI
Method: (§1) ARBL/ARBC Whole Cell 5-Lipoxygenase and Cyclooxygenase Assays
(§2) The rat basophilic leukemia cell line (RBL-1) was obtained from the American Type Culture Collection (Rockville, MD).
(§3) Radioimmunoassay (RIA) kits of LTB4 and PGF2.sbsb.α were obtained from Amersham (Arlington Heights, Ill.) and Seragen (Boston, Mass.), respectively.
(§4) RBL-1 cells are grown in suspension culture in Eagle's minimum essential medium supplemented with 12% fetal bovine serum at 37° C. in an incubator supplied with air-5% carbon dioxide. Cells are harvested by centrifugation. They are washed with cold phosphate buffered saline pH 7.4 (PBS; NaCl, 7.1 g; Na2 HPO4, 1.15 g; KH2 PO4, 0.2 g; and KCl, 0.2 g/L). Cells are finally suspended in PBS containing 1.0 mM calcium at a density of 2×10^6 cells/mL. Cells are incubated with and without test agent (in DMSO) (1% DMSO is without effect on arachidonic acid metabolism) for ten minutes at room temperature. Calcium ionophore A23187 (5 μM) is added and cells are incubated for 7 minutes at 37° C. The reaction is stopped by chilling the tubes on ice for 10 minutes. Cells are separated by centrifugation and the supernatant is stored at -20° C. Aliquots (100 μL) are analyzed for LTB4 and PGF2.sbsb.α using radioimmunoassay kits as provided by the supplier.
(§5) Table 1 contains biochemical data obtained from this whole cell assay as IC50 s which are calculated as the amount of test compound causing 50% inhibition or percent of inhibition at the named micromoles (μM) of LTB4 or PGF2.sbsb.α formation.

[2] = target: T2, Cyclooxygenase (Rattus norvegicus, UniProt Q63921); test: ARBC whole cell cyclooxygenase assay (RBL-1 cells, PGF2α formation, RIA); type: cell-based; conditions: RBL-1 whole cells; for inhibition at 10 µM: read-out: ARBC: Percent inhibition of PGF2α @ 10 μM; for IC50: calcium ionophore A23187 (5 μM), read-out: ARBC: IC50 for PGF2α inhibition
T2 construct: host or cells: RBL-1 (rat basophilic leukemia)
T2 sequence (Q63921 27-602): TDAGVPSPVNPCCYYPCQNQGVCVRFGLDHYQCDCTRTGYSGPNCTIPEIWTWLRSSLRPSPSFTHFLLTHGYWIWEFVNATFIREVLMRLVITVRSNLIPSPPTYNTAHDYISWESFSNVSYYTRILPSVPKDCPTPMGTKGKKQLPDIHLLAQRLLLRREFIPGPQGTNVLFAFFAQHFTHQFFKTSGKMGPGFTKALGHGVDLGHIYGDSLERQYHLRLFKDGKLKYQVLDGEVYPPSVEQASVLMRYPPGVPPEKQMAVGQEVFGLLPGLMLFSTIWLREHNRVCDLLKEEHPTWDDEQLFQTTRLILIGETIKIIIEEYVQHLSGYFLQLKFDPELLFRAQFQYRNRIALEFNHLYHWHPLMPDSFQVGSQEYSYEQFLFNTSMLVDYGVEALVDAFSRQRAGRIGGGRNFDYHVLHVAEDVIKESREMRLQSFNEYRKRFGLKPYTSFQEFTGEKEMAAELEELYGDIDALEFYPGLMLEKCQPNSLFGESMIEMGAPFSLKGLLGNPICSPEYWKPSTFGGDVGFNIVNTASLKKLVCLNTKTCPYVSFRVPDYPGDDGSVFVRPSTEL
Method: as §1, §2, §3, §4, §5

[3] = tested on: Carrageenan-Induced Rat Foot Paw Edema; test: Carrageenan-Induced Rat Foot Paw Edema-2 (CFE-2) Assay; type: in vivo; conditions: dosed 1 hour before carrageenan, edema measured 5 hours after, probit analysis, read-out: CFE: ID40 for inhibition of swelling
Method: Carrageenan-Induced Rat Foot Paw Edema-2 (CFE-2) Assay: Protocol
Carrageenan solution (1% w/v) is prepared by dissolving 100 mg carrageenan (Marine Colloidal Div., Springfield, N.J.) in 10 mL of sterile saline (0.9) solution (Travenol). The solution is vortexed for 30 to 45 minutes. Animals are dosed with compound 1 hour before carrageenan challenge. Foot paw edema is induced by injecting 0.10 mL of the 1% carrageenan subcutaneously into the plantar portion of the right hind paw of each rat under light anesthesia. Initial foot paw volume is measured immediately following carrageenan challenge using mercury plethysmography (Buxco Electronics). Edema is measured 5 hours after carrageenan. The difference between the 5-hour and the initial paw volume is expressed as delta edema. The delta edema for each test group of animals is used to calculate the percent inhibition of edema achieved by the compound at the test dose compared with the vehicle control group. The data in Table 1 (the dose at which swelling is inhibited by the noted) is calculated by probit analysis for the dose at which percent inhibition occurs.

Row | SMILES | inhibition at 10 µM [1] [%] | inhibition at 10 µM ([2]; A23187) [%] | IC50 [1] [nM] | further results
1 | CSc1nnc(C(=O)c2cc(C(C)(C)C)c(O)c(C(C)(C)C)c2)s1 [Example 30] | 100 | 100 | – | –
2 | CC(C)(C)c1cc(Sc2n[nH]c(=S)o2)cc(C(C)(C)C)c1O [Example 7, 5-[[3,5-Bis(1,1-dimethylethyl)-4-hydroxyphenyl]thio]-1,3,4-oxadiazole-2(3H)-thione] | – | – | 2000 | IC50 [2]: 1500 nM; ED40 [3]: 8.6 mg/kg
3 | CC(C)(C)c1cc(Sc2nncs2)cc(C(C)(C)C)c1O [Example 10, 2,6-Bis(1,1-dimethylethyl)-4-[(1,3,4-thiadiazol-2-yl)thio]-phenol] | 59 | 54 | – | –
4 | CC(C)(C)c1cc(SCCc2nnco2)cc(C(C)(C)C)c1O [Example 15] | 100 | 55 | – | –
5 | CC(C)(C)c1cc(Sc2n[nH]c(=S)s2)cc(C(C)(C)C)c1O [Example 9, 5-[[3,5-Bis(1,1-dimethylethyl)-4-hydroxyphenyl]thio]-1,3,4-thiadiazole-2(3H)-thione] | – | – | 1100 | IC50 [2]: 3600 nM
6 | CC(C)(C)c1cc(SCCc2nnc(N)o2)cc(C(C)(C)C)c1O [Example 16] | 100 | – | – | –
7 | CC(C)(C)c1cc(C(=O)c2n[nH]c(=S)s2)cc(C(C)(C)C)c1O [Example 31, [3,5-Bis(1,1-dimethylethyl)-4-hydroxphenyl][5(4H)-thioxo-1,3,4-thiadiazol-2-yl]methanone] | 100 | 92 | – | –
8 | CC(C)(C)c1cc(CCc2nnc(N)o2)cc(C(C)(C)C)c1O [Example 26, 4-[2-(5-Amino-1,3,4-oxadiazol-2-yl)ethyl]-2,6-bis(1,1-dimethylethyl)phenol] | 40 | – | – | –
9 | CC(C)(C)c1cc(SCCc2n[nH]c(=O)o2)cc(C(C)(C)C)c1O [Example 13, 5-[2-[[3,5-Bis(1,1-dimethylethyl)-4-hydroxyphenyl]thio]ethyl]-1,3,4-oxadiazol-2(3H)-one] | – | 75 | 600 | –
10 | CC(C)(C)c1cc(Sc2n[nH]c(=O)o2)cc(C(C)(C)C)c1O [Example 6, 5-[[3,5-Bis(1,1-dimethylethyl)-4-hydroxyphenyl]thio]-1,3,4-oxadiazol-2(3H)-one] | – | – | – | inhibition at 16 µM [1]: 91%; ARBC: Percent inhibition of PGF2α ([2]; @ 16 (as printed in the cell), A23187): 46%
11 | CC(C)(C)c1cc(Sc2n[nH]c(=O)s2)cc(C(C)(C)C)c1O [Example 8, 5[[3,5-Bis(1,1-dimethylethyl)-4-hydroxyphenyl]thio]-1,3,4-thiadiazol-2(3H)-one] | – | – | – | inhibition at 16 µM [1]: 90%

The next lines start with results.

Row | inhibition at 10 µM [1] [%] | inhibition at 10 µM ([2]; A23187) [%] | IC50 [1] [nM] | SMILES | further results
12 | 100 | 52 | – | CC(C)(C)c1cc(CCc2nnco2)cc(C(C)(C)C)c1O [Example 25, 2,6-Bis(1,1-dimethylethyl)-4-[2-(1,3,4-oxadiazol-2-yl)ethyl]phenol] | –
13 | – | – | 1100 | CC(C)(C)c1cc(C(=O)c2nnc(N)s2)cc(C(C)(C)C)c1O [Example 29, (5-Amino-1,3,4-thiadiazol-2-yl)[3,5-bis(1,1-dimethylethyl)-4-hydroxyphenyl]methanon] | IC50 [2]: 5200 nM
14 | – | – | 4200 | CC(C)(C)c1cc(SCCc2n[nH]c(=S)o2)cc(C(C)(C)C)c1O [Example 14, 5-[2-[3,5-Bis(1,1-dimethylethyl)-4-hydroxyphenyl]thio]ethyl-1,3,4-oxadiazole-2(3H)-thione] | –
15 | 60 | – | – | CC(C)(C)c1cc(CCc2n[nH]c(=O)o2)cc(C(C)(C)C)c1O [Example 23, 5-[2-[3,5-bis(1,1-dimethylethyl)-4-hydroxyphenyl]ethyl]-1,3,4-oxadiazol-2(3H)-one] | –
